Test results taken from patent US20180064729A1, “Treatment of Pulmonary Disease” (Intercept Pharmaceuticals, Inc., priority 2012, published 2018).
“Also recorded” adds a separate entry of the source.

Tests used:
[1] = system: C57B1/6 wild-type and FXR−/− mice; assay: murine bleomycin-induced pulmonary fibrosis model; format: in vivo; conditions: bleomycin day 0; 5 mg/kg daily; 22 days
Protocol: The murine model of bleomycin-induced pulmunary fibrosis was induced in C57B1/6 wild-type and FXR^−/− mice (females, 6-8 weeks old). Groups of treatment included: • WT mice: A—saline (day 0); B—bleomycin (day 0); C—bleomycin (day 0)- • Compound 1 (also referred to as 6ECDCA) (5 mg/kg, daily) • FXR^−/− mice: D—saline (day 0); E—bleomycin (day 0); F—bleomycin (day 0) • Compound 1 (also referred to as 6ECDCA) (5 mg/kg, daily).
After 22 days, the mice were sacrified and the subsequent analyses were performed: (1) H&E and […] staining on lung sections; (2) Quantification of collagen I into the lung by qRT-PCR and Sircol collagen assay; (3) FXR, SHP and CXCL12 mRNA quantification by qRT-PCR; and (4) CXCL12 protein quantification by ELISA on lung homogenates.

[2] = system: murine lung fibroblast cell line (ATCC number CCL-206); assay: Col I and CXCL12 expression in stimulated lung fibroblasts (qRT-PCR, ELISA, Sircol); format: cell-based; conditions: 24 hours
Protocol: FXR activation reduced the production of collagen I and […] by resident fibroblasts. Specifically, after a 24 hour period of starving, cells from the murine lung fibroblast cell line (ATCC number CCL-206) were stimulated with or without TGFβ1 (10 ng/ml) and 6ECDCA (10 μM) for 24 hours and then the FXR, SHP and Col I gene expression was analyzed by qRT-PCR. After a 24 hours period of starving, cells from the murine lung fibroblast cell line (ATCC number CCL-206) were stimulated with or without TNFα (10 ng/ml) and 6ECDCA (10 μM) for 24 hours and then the FXR, SHP and CXCL12 gene expression was analyzed by qRT-PCR.
The downregulation of Col I and CXCL12 induced by 6ECDCA was FXR-mediated. After an overnight period of starving, murine lung fibroblast cell line (ATCC number CCL-206) was stimulated with or without TGFβ1 (10 ng/ml) and 6ECDCA (1 μM) for 24 hours—with and without block of the FXR by siRNA—and then the FXR, SHP, Col I and CXCL12 gene expression was analyzed by qRT-PCR. CXCL12 and Col I secretion in the supernatants was analyzed by ELISA and the Sircol collagen assay, respectively.
The downreguation of Col I and CXCL12 induced by 6ECDCA was SHP-mediated. Specifically, transfection of pulmonary fibroblasts with vector carrying the HA-SHP chimera was carried out to induce a SHP overexpression (WB analysis of the HA-SHP expression). Col I and CXCL12 expression (by qRT-PCR) was analyzed at baseline and after stimulation with TGFβ1. SHP overexpression was sufficient to down-regulate the Col I and CXCL12 expression, basically and after stimulation with TGFβ1.
After an overnight period of starving, murine lung fibroblast cell line (ATCC number CCL-206) were stimulated with/without TGFβ1 (10 ng/ml) and 6ECDCA (1 μM) for 24 hours—with and without block of the SHP by siRNA—and then the FXR, SHP, Col I and CXCL12 gene expression was analyzed by qRT-PCR. CXCL12 and Col I secretion in the supernatants was analyzed by ELISA and the Sircol collagen assay, respectively.

[3] = system: DSS (Dahl salt-sensitive) rat; assay: Dahl salt-sensitive (DSS) rat high salt diet study; format: in vivo
Description: The rodent model for salt-sensitive hypertension was a DSS (Dahl salt-sensitive) rat (e.g., Rapp). […] Specifically, the rodent models used for the study were male 4-week old DSS rats (e.g., SS/JrHsd) from Harlan Laboratories. The normal diet of the DSS rats was 0.49% NaCl and the high salt diet was 8% NaCl (e.g., Teklad Custom Research Diet). The rats were divided into four groups (herein referred to as DSS study rats): • Group 1; Normal salt diet (1% Methylcellulose) (N=6) • Group 2; High-salt diet (Vehicle; 1% MC) (N=9) • Group 3; High-salt diet (6ECDCA 10mg/kg/day) (N=6) • Group 4; High-salt diet (6ECDCA 30mg/kg/day) (N=9)
The following analyses were carried out: ADMA and NO levels in serum and urine and tissues (e.g., liver, muscle and kidney), blood pressure and heart rate, fasting blood glucose and insulin (HOMA-IR), ipGTT (IR-index), and urinary protein and creatinine. Additional studies such as electrolytes (Na+), histological analysis and TGFbeta expression in kidney, DDAH expression and activity in liver, skeletal muscle and kidney, and Akt-phosphorylation level in liver, skeletal muscle and kidney can also be carried out.
6ECDCA was administered orally daily for 6-weeks. Blood and urine collections were performed at week 0 and week 6 and analyzed by methods known in the art. Blood pressure measurement was performed at week 0, 1, 2, 4 and 6 by tail cuff devices, which was performed on conscious models and was non-invasive. The blood pressure was also obtained via catheter, which was performed when the model was sacrificed. The glucose challenge test was performed at week 5. Renal function was analyzed by measuring the urinary volume, protein and creatinine in a 24 h-urine sample. Histological analysis was performed using the Masson&Trichrome staining. Insulin resistance was analyzed using the ipGTT test and the HOMA/IR index. The ADMA and NO levels were detected in blood concentration and urinary excretion (FIG. 1).

Sprague-Dawley (SD) rats [4] = assay: MCT-induced pulmonary hypertensive rat model: right ventricular hypertrophy index; format: in vivo; conditions: day 28; MCT 60 mg/kg s.c.; OCA 30 mg/kg oral gavage, tadalafil 10 mg/kg/day in drinking water
Protocol: (§1) Pulmonary hypertension was induced by subcutaneous injection of 60 mg/kg monocrotaline (MCT) (Sigma Chemicals, St. Louis, Mo., USA) dissolved in 0.5 N HCl solution. Briefly, male Sprague-Dawley (SD) rats, weighing between 200 to 250 g, were housed in climate-controlled conditions with a 12 hours light:12 hours dark cycle, with free access to chow and water. […]

small pulmonary arteries = assay: MCT-induced pulmonary hypertensive rat model: pulmonary artery wall thickness; format: in vivo; conditions: for MCT-induced increase in wall thickness (WT): OCA 30 mg/kg oral, p<0.00001; for wall thickness (WT) in small pulmonary arteries: MCT 60 mg/kg s.c. alone
Protocol: (§2) Pulmonary hypertension was induced by subcutaneous injection of 60 mg/kg monocrotaline (MCT) (Sigma Chemicals, St. Louis, Mo., USA) dissolved in 0.5 N HCl solution. Briefly, male Sprague-Dawley (SD) rats, weighing between 200 to 250 g, were housed in climate-controlled conditions with a 12 hours light:12 hours dark cycle, with free access to chow and water. SD rats were randomly allocated to the following groups: • 1) SD rats left untreated and sacrificed after 7 (n=5) or 28 (n=5) days; • 2) SD rats receiving a single subcutaneous injection of vehicle MCT sacrificed after 7 days (n=5); • 3) SD rats receiving a single subcutaneous injection of vehicle MCT sacrificed after 28 days (n=10); • 4) SD rats receiving a single subcutaneous injection of MCT [60 mg/kg, n=5] sacrificed after 7 days; • 5) SD rats receiving single subcutaneous injection of MCT [60 mg/kg, n=15] sacrificed after 28 days; • 6) SD rats receiving single subcutaneous injection of MCT [60 mg/kg] and immediately treated with OCA (30 mg/kg, daily 5 days a week, by oral gavage, n=5) for 7 days]; • 7) SD rats receiving single subcutaneous injection of MCT [60 mg/kg] and immediately treated with OCA (30 mg/kg, daily 5 days a week, by oral gavage, n=10) for 28 days]; • 8) SD rats receiving single subcutaneous injection of MCT [60 mg/kg] and immediately treated with tadalafil (10 mg/kg/day, in drinking water, n=5) for 7 days]; • 9) SD rats receiving single subcutaneous injection of MCT [60 mg/kg] and immediately treated with tadalafil (10 mg/kg/day, in drinking water, n=10) for 28 days]; • 10) SD rats receiving single subcutaneous injection of MCT [60 mg/kg] and immediately treated with vehicle OCA (by oral gavage, n=5) for 7 days; • 11) SD rats receiving single subcutaneous injection of MCT [60 mg/kg] and immediately treated with vehicle OCA (by oral gavage, n=10) for 28 days.
Pulmonary vascular remodeling was evaluated by determining wall thickness (WT). Lungs were fixed in 10% buffered formalin and embedded in paraffin, then sectioned at a thickness of 5 μm and stained with hematoxylin-eosin. Ten pulmonary arteries were examined for structural integrity using a morphometric image analysis system independently by two pathologists who were blinded to animal grouping. WT, vessel diameter (ED), were determined. WT(%)=(2×WT/ED)×100%. More than 50 images of pulmonary arterioles (25 to 100 μm diameters) from at least three tissue sections at a magnification of ×20 were captured using amicroscopic digital camera and analyzed using an image analysisprogram (Fiji-win32). The external diameter (D) and medial thickness oneither side (M1 and M2) were measured along the shortest diameter. The medial wall thickness was expressed as follows: % wall thickness=[(M1+M2)/2/D]×100.

[5] = system: lung mRNA of inflammation, endothelium-proliferative and NO-signaling genes; assay: MCT-induced pulmonary hypertensive rat model: lung mRNA expression by qRT-PCR; format: in vivo
Protocol: as §2
mRNA expression analysis of genes involved in inflammation [interleukin 6 (IL-6), monocyte chemoattractant protein-1 (MCP-1/CCL2), cyclooxygenase-2], endothelium-proliferative factors (vascular endothelial growth factor (VEGF) and angiotensin-converting enzyme 2 (ACE2)), NO-signaling [endothelial nitric oxide synthase (eNOS), phosphodiesterase type 5 (PDES), cyclic guanylate cyclase subunits type 1a3 and 1b3, GC1a3, GC1b3, protein kinase G 1, PKG1], were performed. Isolation of RNA from lung, qRT-PCR was performed according to the fluorescent TaqMan methodology. PCR primers and probes specific for mRNA sequences of aforementioned target genes and of the reference gene 18S rRNA was purchased from Life Technologies (Paisley, UK).

Sprague-Dawley (SD) rats [6] = assay: MCT-induced pulmonary hypertensive rat model: survival (Kaplan-Meier); format: in vivo; conditions: MCT-treated rats, study period 28 days
Protocol: as §1
During the study period, the animals were observed daily for mortality, and median survival time in each group was calculated with Kaplan-Meier analysis.

CC[C@H]1[C@@H](O)[C@@H]2[C@H](CC[C@]3(C)[C@@H]([C@H](C)CCC(=O)O)CC[C@@H]23)[C@@]2(C)CC[C@@H](O)C[C@@H]12 [Compound 1, 3α,7α-dihydroxy-6α-ethyl-5β-cholanic acid]
pulmonary fibrosis [1]: ameliorates the pulmonary fibrosis | downregulation of Col I and CXCL12, dependence on SHP ([2]; TGFβ1 10 ng/ml, 6ECDCA 1 μM, SHP overexpression / block of SHP by siRNA): SHP-mediated | downregulation of Col I and CXCL12, dependence on FXR ([2]; TGFβ1 10 ng/ml, 6ECDCA 1 μM, with and without block of FXR by siRNA): FXR-mediated | production of collagen I by resident fibroblasts (Col I gene expression) ([2]; TGFβ1 10 ng/ml, 6ECDCA 10 μM): reduced | production of CXCR12 by resident fibroblasts (CXCL12 gene expression) ([2]; TNFα 10 ng/ml, 6ECDCA 10 μM): reduced | ADMA levels in serum and urine [3]: did not reduce ADMA | albuminuria induced by high salt diet [3]: reduced albuminuria | IR-index reduction compared to the vehicle ([3]; 10 mg/kg): 38% | body weight ([3]; 10 mg/kg and 30 mg/kg, seven week study): did not affect the body weight | IR-index reduction compared to the vehicle ([3]; 30 mg/kg): 21% | lung weight (pulmonary congestion) ([3]; 30 mg/kg): reduced lung weight | renal protection ([3]; 30 mg/kg): showed renal protection | heart rate ([3]; 10 and 30 mg/kg/day oral): did not affect heart rate | blood pressure ([3]; 10 and 30 mg/kg/day oral, listed as 6ECDCA): did not affect heart rate blood pressure or reduce blood pressure; also recorded: did not reduce blood pressure | glucose levels ([3]; GTT): trended lower | insulin levels ([3]; GTT): trended lower | insulin sensitivity (Insulin Resistance-Index) ([3]; GTT at week 5): reversed insulin resistance | right ventricular hypertrophy index (RVH), RV/(LV+S) (Sprague-Dawley (SD) rats [4]): completely normalized RVH | MCT-induced increase in wall thickness (WT) (small pulmonary arteries; day 7): markedly reduced | MCT-induced increase in wall thickness (WT) (small pulmonary arteries; day 28): markedly reduced | PKG1 mRNA expression ([5]; 28-day treatment, p=0.01 vs. MCT): significantly upregulates | GC1a3 mRNA expression ([5]; after 7 days of OCA dosing): significant increase | PDES mRNA expression ([5]; after 7 days of OCA dosing): significant increase | PKG1 mRNA expression ([5]; after 7 days of OCA dosing): significant increase | MCT-induced MCP-1 expression ([5]; day 7, lung): significantly reduced | IL-6 mRNA expression ([5]; day 28, lung): significantly reduced | MCT-induced MCP-1 expression ([5]; day 28, lung): significantly reduced | VEGF mRNA expression ([5]; day 28, p=0.001 vs. MCT): significantly upregulate | ACE2 mRNA expression ([5]; day 28, p=0.038 vs. MCT): significantly upregulate | mortality rate (Sprague-Dawley (SD) rats [6]): 13.2%

C[C@H]1C(=O)O[C@@H]2CCN3CC=C(COC(=O)[C@](C)(O)[C@]1(C)O)[C@H]23 [MCT, monocrotaline, reference compound]
wall thickness (WT) in small pulmonary arteries (small pulmonary arteries; day 7, control 19±0.7): 33±0.8% | wall thickness (WT) in small pulmonary arteries (small pulmonary arteries; day 28, control 16.8±0.8%): 32.6±0.7% | mortality rate (Sprague-Dawley (SD) rats [6]): 24%
